Measured values reported in ChEMBL document CHEMBL1777765, “Synthesis of 5-thiodidehydropyranylcytosine derivatives as potential anti-HIV agents” (2011).
Activity calls are given as the source filed them. The calls are words filed in the database; no cut-off is given here.

Experiments:
[1] = system: Human immunodeficiency virus 1; experiment: Antiviral activity against HIV1 infected in human PBMC assessed as inhibition of viral replication at 1 to 1000 nM by p24 HIV antigen capture assay; assay type: functional, organism-based
[2] = system: Human immunodeficiency virus 1; experiment: Antiviral activity against HIV1 infected in human PBMC assessed as inhibition of viral replication at 100 nM by p24 HIV antigen capture assay relative to control; assay type: functional
[3] = system: Human immunodeficiency virus 1; experiment: Antiviral activity against HIV1 infected in human PBMC assessed as inhibition of viral replication at 10 nM by p24 HIV antigen capture assay relative to control; assay type: functional

For `Nc1ccn([C@H]2C=C[C@@H](CO)[C@H](CO)S2)c(=O)n1`, the inhibition [1] was “Active”.

With `Nc1ccn([C@@H]2C=C[C@@H](CO)[C@H](CO)S2)c(=O)n1` (racemic) the inhibition at 0.1 µM [2] was 75% and the inhibition at 0.01 µM [3] was 65%.

`Nc1ccn([C@@H]2CS[C@H](CO)O2)c(=O)n1` [LAMIVUDINE] was tested, and the inhibition at 0.01 µM [3] was 37%.
